Source: US20070208087A1, “Compounds, compositions and methods for the treatment of inflammatory diseases” (priority 2001, published 2007)
Where “and” joins values, the source holds several entries; their conditions need not be identical. Equal values may be shown once. Read-outs that look alike come from different tables or passages of the source.

Experiments:
Format in all cases: cell-based
[1] = system: TNF-α release from microglia; assay: TNF-α release from LPS/IFNγ stimulated microglia, TNF-α ELISA (Example 11); conditions: 50 uM compound, TNF-α release, 10 ug LPS and 10 ng IFNγ, 24 hours; for % inhibition: individual replicates, 50 µM; for inhibition at 50 µM: Microglia, 24 h, read-out: Avg % Inhibition
Method: Also, bis- and tris-dihydroxyaryl compound's ability to inhibit NO release strongly supports their interference with the inflammatory cascade and utlimately inhibition of inflammation. Microglia cells were plated at 1×10^5 cells/ml into 96 well plates. At day three, they were treated with 50 μM bis- and tris-dihydroxyaryl compound for 1 hour and then exposed to 10 μg/ml LPS+10 ng/ml IFNγ for 24 hours. 10 μl of media was removed and stored at −80° until TNF-α ELISA assays were performed. Samples were diluted 1:50 before running the TNF-α ELISA (kit commercially available from Sigma).

[2] = system: EOC 13.31 microglia cells; assay: Inhibition of NO release from microglia following 24 hours pretreatment (Example 10); conditions: for inhibition at 50 µM: Microglia
Method: This experiment was designed to determine if pretreatment for 24 hours with bis- and tris-dihydroxyaryl compounds changes NO inhibition previously observed with concurrent exposure of bis- and tris-dihydroxyaryl compounds. […] This study seeks to determine if pretreatment with bis- and tris-dihydroxyaryl compounds increases NO release inhibition. EOC 13.31 microglia cells were plated at 1×10^6 cells/ml in 96 well plates. After 48 hours, confluent cells were exposed to 50 μM compound (stock 10 mM in DMSO) prepared in fresh cell culture media. After 24 hours, 10 μg/ml LPS and 10 ng/ml IFNγ was added to wells directly without a media change. Cells were incubated for a further 48 hours and nitric oxide release was measured using the Griess Reaction.

microglia = assay: Ranking of NO release inhibition (Example 12); conditions: Microglia, ranking table
Source text: The bis- and tris-dihydroxyaryl compounds were ranked in order of effectiveness for the inhibition of NO release as set out in Table 8.

[3] = system: EOC 13.31 microglial cells; assay: NO release inhibition screen in LPS/IFNγ stimulated microglia, Griess reaction at 48 hours (Example 7); conditions: for μM NO release Avg / % inhibition / inhibition at 50 µM: 50 uM + 10 μg/ml LPS/10 ng/ml IFNγ, 48 hours; for % inhibition: single replicates, 50 µM; for inhibition at 50 µM: Microglia, 48 h, read-out: Avg. % Inhibition
Method: In this experiment, additional bis- and tris-dihydroxyaryl compounds were screened for their ability to inhibit nitric oxide release from microglial cells. Microglial cells stimulated with LPS/IFNγ release nitric oxide. […] This is a continuation of screening experiments. EOC 13.31 microglial cells were plated into 96 well plates. At 24 hours and at confluency, cells were treated with 10 μg/ml LPS/10 ng/ml IFNγ+50 uM bis- and tris-dihydroxyaryl compounds.

Microglial cells = assay: Dose response inhibition of NO release from microglia, 0.5-500 μM (Example 9); conditions: for μM NO release / μM NO release (No LPS average subtracted): 3 replicates
Method: This experiment was designed to determine the dose response inhibition of NO release from microglia by bis- and tris-dihydroxyaryl compounds when stimulated with LPS/IFNγ. Earlier experiments have demonostrated that some bis- and tris-dihydroxyaryl compounds are good inhibitors of NO release from microglia. This experiment is designed to determine a dose response for various effective bis- and tris-dihydroxyaryl compounds. Microglial cells were plated into 96 well plates at 1×10^5 cells/ml. At 48 hours, media was exchanged for media containing 10 ng/ml IFNγ and 10 μg/ml LPS and the following compounds 3, 4, 21, 26 and the positive control L-NAME. The doses tested were: 0.5 μM, 1.0 μM, 5.0 μM, 10 μM, 25 μM, 50 μM, 100 μM, 250 μM, and 500 μM. Nitric oxide release was measured after 48 hours using the Griess reaction.

[4] = 50 uM pretreatment 24 hours, then LPS/IFNγ 48 hours, single replicates
[5] = 50 uM pretreatment 24 hours, then LPS/IFNγ 48 hours, read-out: Avg % Inhibition
[6] = 50 uM pretreatment 24 hours, then LPS/IFNγ 48 hours, single replicates, read-out: % inhibition
[7] = dose 0.5 μM, LPS/IFNγ, 48 hours
[8] = dose 100 μM, LPS/IFNγ, 48 hours
[9] = dose 250 μM, LPS/IFNγ, 48 hours
[10] = dose 500 μM, LPS/IFNγ, 48 hours

Q: With `Oc1ccc(CN(Cc2ccc(O)c(O)c2)Cc2ccc(O)c(O)c2)cc1O` [Compound 75, tris(3,4-dihydroxybenzyl)amine] as the compound, how does the “% inhibition” value [1] read?
A: The value was 2.52% and −2.74% and 5.81%.

Q: And the inhibition at 50 µM [1]?
A: The inhibition at 50 µM was 1.86%.

Q: What about the “% inhibition” value [2, 4] of the same compound?
A: Its value is 60.46% and 56.98%.

Q: What about the inhibition at 50 µM [2, 5] of the same compound?
A: The inhibition at 50 µM was 59.6%.

Q: And the inhibition at 50 µM [2, 6]?
A: The inhibition at 50 µM was 61.4%.

Q: And the inhibition at 50 µM (microglia)?
A: Its inhibition at 50 µM is 16%.

Q: And the “μM NO release Avg” value [3]?
A: The value was 23.343 µM.

Q: What about the “% inhibition” value [3] of the same compound?
A: Its value is 24.54% and 12.06% and 10.97%.

Q: And the inhibition at 50 µM [3]?
A: Its inhibition at 50 µM is 15.9%.

Q: What does the source list for `O=C(CCC(=O)NCc1ccc(O)c(O)c1)NCc1ccc(O)c(O)c1` [Compound 67, succinic acid bis(3,4-dihydroxybenzylamide)]?
A: % inhibition [1]: −27.48% and −14.06% and −17.41%; inhibition at 50 µM [1]: -19.6%; inhibition at 0.5 µM (Microglial cells; Microglia, 48 h, dose 0.5 μM, NO release, LPS/IFNγ, 48 hours, read-out: Avg % Inhibition): -2.75%; inhibition at 1 µM (Microglial cells; Microglia, 48 h, dose 1 μM, NO release, LPS/IFNγ, 48 hours, read-out: Avg % Inhibition): 1.5%; inhibition at 5 µM (Microglial cells; Microglia, 48 h, dose 5 μM, NO release, LPS/IFNγ): -0.75%; inhibition at 10 µM (Microglial cells; Microglia, 48 h, dose 10 μM, NO release, LPS/IFNγ): -12.7%; inhibition at 25 µM (Microglial cells; Microglia, 48 h, dose 25 μM, NO release, LPS/IFNγ): -5.5%; inhibition at 50 µM (Microglial cells; Microglia, 48 h, dose 50 μM, NO release, LPS/IFNγ): -9.24%; inhibition at 100 µM (Microglial cells; Microglia, 48 h, dose 100 μM, NO release, LPS/IFNγ, 48 hours, read-out: Avg % Inhibition): 16%; inhibition at 250 µM (Microglial cells; Microglia, 48 h, dose 250 μM, NO release, LPS/IFNγ, 48 hours, read-out: Avg % Inhibition): 44.4%; inhibition at 250 µM (Microglial cells; Microglia, 48 h, dose 250 μM, individual replicates, NO release, LPS/IFNγ, 48 hours, read-out: % inhibition): 45.3%; inhibition at 500 µM (Microglial cells; Microglia, 48 h, dose 500 μM, NO release, LPS/IFNγ, 48 hours, read-out: Avg % Inhibition): 76.9%; inhibition at 500 µM (Microglial cells; Microglia, 48 h, dose 500 μM, individual replicates, NO release, LPS/IFNγ, 48 hours, read-out: % inhibition): 75.5%; inhibition at 500 µM (Microglial cells; Microglia, 48 h, highest concentration tested (500 μM), 48 hours, read-out: inhibited NO release by): 76%; μM NO release (Microglial cells; [7]): 21.528 µM and 20.278 µM and 20.417 µM; μM NO release (No LPS average subtracted) (Microglial cells; [7]): 19.83 µM and 18.58 µM and 18.72 µM; % inhibition (Microglial cells; dose 0.5 μM, individual replicates, NO release, LPS/IFNγ, 48 hours): −7.00% and −0.25% and −1.00%; μM NO release (Microglial cells; dose 1 μM, LPS/IFNγ, 48 hours): 21.528 µM and 19.306 µM and 19.028 µM; μM NO release (No LPS average subtracted) (Microglial cells; dose 1 μM, LPS/IFNγ, 48 hours): 19.83 µM and 17.61 µM and 17.33 µM; % inhibition (Microglial cells; dose 1 μM, individual replicates, NO release, LPS/IFNγ, 48 hours): −7.00% and 5.00% and 6.50%; μM NO release (Microglial cells; dose 5 μM, LPS/IFNγ, 48 hours): 21.389 µM and 19.583 µM and 20.139 µM; μM NO release (No LPS average subtracted) (Microglial cells; dose 5 μM, LPS/IFNγ, 48 hours): 19.69 µM and 17.88 µM and 18.44 µM; % inhibition (Microglial cells; dose 5 μM, individual replicates, NO release, LPS/IFNγ, 48 hours): −6.25% and 3.50% and 0.50%; μM NO release (Microglial cells; dose 10 μM, LPS/IFNγ, 48 hours): 22.917 µM and 22.083 µM and 22.778 µM; μM NO release (No LPS average subtracted) (Microglial cells; dose 10 μM, LPS/IFNγ, 48 hours): 21.22 µM and 20.38 µM and 21.08 µM; % inhibition (Microglial cells; dose 10 μM, individual replicates, NO release, LPS/IFNγ, 48 hours): −14.49% and −9.99% and −13.74%; μM NO release (Microglial cells; dose 25 μM, LPS/IFNγ, 48 hours): 21.944 µM and 20.556 µM and 21.250 µM; μM NO release (No LPS average subtracted) (Microglial cells; dose 25 μM, LPS/IFNγ, 48 hours): 20.24 µM and 18.86 µM and 19.55 µM; % inhibition (Microglial cells; dose 25 μM, individual replicates, NO release, LPS/IFNγ, 48 hours): −1.75%; μM NO release (Microglial cells; dose 50 μM, LPS/IFNγ, 48 hours): 22.639 µM and 21.111 µM and 22.083 µM; μM NO release (No LPS average subtracted) (Microglial cells; dose 50 μM, LPS/IFNγ, 48 hours): 20.94 µM and 19.41 µM and 20.38 µM; % inhibition (Microglial cells; dose 50 μM, individual replicates, NO release, LPS/IFNγ, 48 hours): −12.99% and −4.75% and −9.99%; μM NO release (Microglial cells; [8]): 17.917 µM and 14.583 µM and 19.306 µM; μM NO release (No LPS average subtracted) (Microglial cells; [8]): 16.22 µM and 12.88 µM and 17.61 µM; % inhibition (Microglial cells; dose 100 μM, individual replicates, NO release, LPS/IFNγ, 48 hours): 12.49% and 30.48% and 5.00%; μM NO release (Microglial cells; [9]): 11.835 μM (2×) and 12.367 μM; μM NO release (No LPS average subtracted) (Microglial cells; [9]): 10.14 μM (2×) and 10.67 μM; % inhibition (Microglial cells; dose 250 μM, individual replicates, NO release, LPS/IFNγ, 48 hours): 42.44%; μM NO release (Microglial cells; [10]): 6.250 µM and 5.707 µM and 5.978 µM; μM NO release (No LPS average subtracted) (Microglial cells; [10]): 4.55 µM and 4.01 µM and 4.28 µM; % inhibition (Microglial cells; dose 500 μM, individual replicates, NO release, LPS/IFNγ, 48 hours): 78.38%; % inhibition [2, 4]: 58.88% and 67.74%; inhibition at 50 µM [2, 5]: 65.6%; inhibition at 50 µM [2, 6]: 70.3%; inhibition at 50 µM (microglia): 61%; μM NO release Avg [3]: 10.579 µM; % inhibition [3]: 44.82% and 72.72% and 65.01%; inhibition of NO release, in words ([3]; 50 uM, LPS/IFNγ stimulated microglia): effective inhibitors of NO release; inhibition at 50 µM [3]: 60.9%

Q: For `O=C(CCc1ccc(O)c(O)c1)Nc1ccc(O)c(O)c1` [Compound 57, 3-(3,4-dihydroxyphenyl)propionic acid 3,4-dihydroxyanilide], which “% inhibition” value [1] is on record?
A: The value was −6.36% and −3.40% and −1.92%.

Q: And the inhibition at 50 µM [1]?
A: Its inhibition at 50 µM is -3.89%.

Q: What about the “μM NO release” value [2, 4] of the same compound?
A: Its value is 0.000 µM.

Q: And the inhibition at 50 µM [2, 5]?
A: Its inhibition at 50 µM is 100%.

Q: And the inhibition at 50 µM [2, 6]?
A: The inhibition at 50 µM was 100%.

Q: And the inhibition at 50 µM ([2]; 50 μM pretreatment, read-out: inhibition of NO release following pretreatment)?
A: Its inhibition at 50 µM is > 75%.

Q: What about the inhibition at 50 µM (microglia) of the same compound?
A: The inhibition at 50 µM was 14%.

Q: And the “μM NO release Avg” value [3]?
A: Its value is 23.756 µM.

Q: What about the “% inhibition” value [3] of the same compound?
A: Its value is 16.40% and 20.74% and 5.97%.

Q: What about the inhibition at 50 µM [3] of the same compound?
A: The inhibition at 50 µM was 14.4%.
